The text below walks through data of ChEMBL document CHEMBL5518172, “Discovery of hydroxamate as a promising scaffold dually inhibiting metallo- and serine-β-lactamases” (Eur J Med Chem, 2024).

The source made the active and inactive calls. No cut-off for these calls is given here.

By inhibition is commonly meant the share of the control response that was lost under treatment. One may read the MIC as the lowest concentration that inhibits growth of the organism. The IC50 is the midpoint of a concentration-inhibition curve.

Data set [1] relates to Bacteria. The data set can be described thus: Inhibition of recombinant metallo-beta-lactamase L-1 (unknown origin) expressed in Escherichia coli BL21 (DE3) cells using cefazolin as substrate at 20 uM by spectrometric analysis relative to control.
The test system of data set [2] is Escherichia coli. The data set can be described thus: Synergistic antibacterial activity against Escherichia coli BL21 (DE3) harboring serine beta lactamase OXA-48 assessed as meropenem MIC at 64 microg/ml measured after 16 hrs by CLSI protocol based broth microdilution method (reference value: 1 microg/ml). It is filed as functional. The note with it: dose 64 µg/ml. In general terms: In broth dilution the organism is exposed to a series of concentrations in liquid medium.

In data set [3] the test system is Escherichia coli. The data set can be described thus: Synergistic antibacterial activity against Escherichia coli BL21 (DE3) harboring NDM-1 assessed as meropenem MIC at 64 microg/ml measured after 16 hrs by CLSI protocol based broth microdilution method (reference value: 256 microg/ml). The note with it: dose 64 µg/ml. It is filed as functional.
In data set [4] the test system is Escherichia coli. The data set is described as follows: Synergistic antibacterial activity against Escherichia coli BL21 (DE3) harboring serine beta lactamase KPC-2 assessed as fold decrease in meropenem MIC at 64 microg/ml measured after 16 hrs by CLSI protocol based broth microdilution method. To be noted: dose 64 µg/ml. It is filed as functional.
Data set [5] deals with Metallo-beta-lactamase type 2 (Bacteria, UniProt C7C422). The data set is described as follows: Inhibition of recombinant NDM-1 (unknown origin) expressed in Escherichia coli BL21 (DE3) cells using meropenem as substrate by spectrometric analysis.
The test system of data set [6] is Escherichia coli. The data set is described as follows: Synergistic antibacterial activity against Escherichia coli BL21 (DE3) harboring serine beta lactamase OXA-48 assessed as fold decrease in meropenem MIC at 64 microg/ml measured after 16 hrs by CLSI protocol based broth microdilution method. In kind it is functional. To be noted: dose 64 µg/ml.
For data set [7], the system named is Escherichia coli. The data set is described as follows: Synergistic antibacterial activity against Escherichia coli BL21 (DE3) harboring metallo-beta lactamase IMP-1 assessed as fold decrease in meropenem MIC at 64 microg/ml measured after 16 hrs by CLSI protocol based broth microdilution method. In kind it is functional. To be noted: dose 64 µg/ml.
The nature of data set [8]: Inhibition of recombinant metallo-beta-lactamase IMP-1 (unknown origin) expressed in Escherichia coli BL21 (DE3) cells using meropenem as substrate by spectrometric analysis. Also noted: species or system Bacteria.
Data set [9] has as its system Bacteria. The data set can be described thus: Inhibition of recombinant metallo-beta-lactamase ImiS (unknown origin) expressed in Escherichia coli BL21 (DE3) cells using meropenem as substrate at 20 uM by spectrometric analysis relative to control.
Data set [10] deals with Escherichia coli. The data set can be described thus: Synergistic antibacterial activity against Escherichia coli BL21 (DE3) harboring serine beta lactamase KPC-2 assessed as meropenem MIC at 64 microg/ml measured after 16 hrs by CLSI protocol based broth microdilution method (reference value: 16 microg/ml). It is filed as functional. To be noted: dose 64 µg/ml.
A short description of data set [11]: Inhibition of recombinant serine beta lactamase KPC-2 (unknown origin) expressed in Escherichia coli BL21 (DE3) cells using meropenem as substrate by spectrometric analysis. Details: species or system Bacteria.
Data set [12] concerns Bacteria. The data set is described as follows: Inhibition of recombinant metallo-beta-lactamase IMP-1 (unknown origin) expressed in Escherichia coli BL21 (DE3) cells using cefazolin as substrate at 20 uM by spectrometric analysis relative to control.
Data set [13] deals with Metallo-beta-lactamase type 2 (Bacteria) (UniProt C7C422). The data set is described as follows: Inhibition of recombinant NDM-1 (unknown origin) expressed in Escherichia coli BL21 (DE3) cells using meropenem as substrate at 20 uM by spectrometric analysis relative to control.
Data set [14] concerns Escherichia coli. The data set is described as follows: Synergistic antibacterial activity against Escherichia coli BL21 (DE3) harboring NDM-1 assessed as fold decrease in meropenem MIC at 64 microg/ml measured after 16 hrs by CLSI protocol based broth microdilution method. It is filed as functional. The note with it: dose 64 µg/ml.
Data set [15] in a line: Inhibition of recombinant serine beta lactamase OXA-48 (unknown origin) expressed in Escherichia coli BL21 (DE3) cells using meropenem as substrate by spectrometric analysis. Details: species or system Bacteria.
Data set [16] deals with Escherichia coli. The data set can be described thus: Synergistic antibacterial activity against Escherichia coli BL21 (DE3) harboring metallo-beta-lactamase IMP-1 assessed as meropenem MIC at 64 microg/ml measured after 16 hrs by CLSI protocol based broth microdilution method (reference value: 64 microg/ml). To be noted: dose 64 µg/ml. In kind it is functional.
Data set [17] deals with Bacteria. The data set is described as follows: Inhibition of recombinant serine beta lactamase OXA-48 (unknown origin) expressed in Escherichia coli BL21 (DE3) cells using meropenem as substrate at 20 uM by spectrometric analysis relative to control.
The test system of data set [18] is Bacteria. The data set is described as follows: Inhibition of recombinant serine beta lactamase KPC-2 (unknown origin) expressed in Escherichia coli BL21 (DE3) cells using meropenem as substrate at 20 uM by spectrometric analysis relative to control.
Data set [19] is described as follows: Cytotoxicity against mouse L929 cells assessed as cell viability upto 200 uM incubated for 48 hrs by CCK8 assay relative to control. In kind it is toxicity, cell-based. To be noted: read-out: Activity. A general note: Tetrazolium dyes change colour on reduction, which living cells bring about.
Data set [20] deals with Escherichia coli. The data set is described as follows: Synergistic antibacterial activity against Escherichia coli harboring serine beta-lactamase OXA-48 infected in Kunming mouse model assessed as reduction in bacterial load in liver at 20 mg/kg, ip co-administered with 1 mg/kg of meropenem. It is filed as functional, organism-based.
Data set [21] deals with Escherichia coli. The data set can be described thus: Synergistic antibacterial activity against Escherichia coli BL21 (DE3) harboring NDM-1 assessed as decrease in bacterial colony at 128 microg/ml incubated for 12 hrs in presence of meropenem by imaging analysis. It is filed as functional, organism-based. To be noted: dose 128.0 µg/ml.
Data set [22] has as its system Escherichia coli. The data set can be described thus: Antibacterial activity against Escherichia coli harboring serine beta-lactamase OXA-48 infected in Kunming mouse model assessed as reduction in bacterial load in spleen at 20 mg/kg, ip. It is filed as functional, organism-based.
The subject of data set [23] is Escherichia coli. The data set can be described thus: Antibacterial activity against Escherichia coli harboring serine beta-lactamase OXA-48 infected in Kunming mouse model assessed as reduction in bacterial load in liver at 20 mg/kg, ip. In kind it is functional, organism-based.
Data set [24] has as its system Escherichia coli. The data set is described as follows: Synergistic antibacterial activity against Escherichia coli BL21 (DE3) harboring serine beta lactamase KPC-2 assessed as decrease in bacterial colony at 128 microg/ml incubated for 12 hrs in presence of meropenem by imaging analysis. The note with it: dose 128.0 µg/ml. It is filed as functional, organism-based.

The subject of data set [25] is Escherichia coli. The data set is described as follows: Synergistic antibacterial activity against Escherichia coli clinical isolate 10 assessed as decrease in bacterial colony at 128 microg/ml incubated for 12 hrs in presence of meropenem by imaging analysis. It is filed as functional, organism-based. The note with it: dose 128.0 µg/ml.
Data set [26] relates to Escherichia coli. The data set can be described thus: Synergistic antibacterial activity against Escherichia coli BL21 (DE3) harboring metallo-beta-lactamase IMP-1 assessed as decrease in bacterial colony at 128 microg/ml incubated for 12 hrs in presence of meropenem by imaging analysis. It is filed as functional, organism-based. The note with it: dose 128.0 µg/ml.
In data set [27] the test system is Escherichia coli. The data set is described as follows: Synergistic antibacterial activity against Escherichia coli BL21 (DE3) harboring serine beta lactamase OXA-48 assessed as decrease in bacterial colony at 128 microg/ml incubated for 12 hrs in presence of meropenem by imaging analysis. In kind it is functional, organism-based. The note with it: dose 128.0 µg/ml.

Chain of Metallo-beta-lactamase type 2 (C7C422 whole entry): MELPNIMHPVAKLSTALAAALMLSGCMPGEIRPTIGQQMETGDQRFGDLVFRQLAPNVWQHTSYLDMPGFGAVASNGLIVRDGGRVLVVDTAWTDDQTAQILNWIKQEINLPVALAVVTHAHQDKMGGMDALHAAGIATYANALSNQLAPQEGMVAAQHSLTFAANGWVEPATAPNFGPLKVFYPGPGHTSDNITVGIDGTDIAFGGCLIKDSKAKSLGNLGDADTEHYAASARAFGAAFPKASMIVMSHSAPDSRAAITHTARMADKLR
Chain of Metallo-beta-lactamase type 2 (Bacteria) (C7C422 whole entry): as above

With `CCCCCOC(=O)ONC(=O)CCCc1ccccc1`, the inhibition with Bacteria [1] is under 42%; with Bacteria [9] it was under 42%; with Bacteria [12], over 90%; in [13] it was over 90%; with Bacteria [17], over 90%; in the data set on Bacteria [18] it was over 90%. Further, the minimum inhibitory concentration (MIC) with Escherichia coli [2] amounted to 0.5 µg/mL; with Escherichia coli [3] it was 64 µg/mL; in the data set with Escherichia coli [10], 8 µg/mL; in the data set with Escherichia coli [16] it was 16 µg/mL. The “fold change (FC)” value in the data set with Escherichia coli [4], in the data set on Escherichia coli [6], with Escherichia coli [7] and in the data set on Escherichia coli [14] was 2 in each case. The concentration for half-maximal inhibition (IC50) in [5] came out at 1870 nM; in data set [8], 850 nM; in [11], 1470 nM; in [15], 1030 nM.

For `CC(C)COC(=O)ONC(=O)CCC1CCCCC1`, the minimum inhibitory concentration (MIC) with Escherichia coli [2] amounted to 0.063 µg/mL; in the data set on Escherichia coli [3], 64 µg/mL; in the data set on Escherichia coli [10], 16 µg/mL; in the data set on Escherichia coli [16] it was 32 µg/mL. The viability at 48 h, up to 200 µM in data set [19] was over 80%. For the same compound, the half-inhibitory concentration (IC50) came out at 4730 nM in data set [5], 4490 nM in [8], 690 nM in [11] and 2050 nM in data set [15]. For the same compound, the outcome with Escherichia coli [20], with Escherichia coli [21], in the data set on Escherichia coli [24], in the data set with Escherichia coli [25], with Escherichia coli [26] and in the data set on Escherichia coli [27] was Active. The outcome with Escherichia coli [22] and in the data set with Escherichia coli [23] was inactive. The entries for the “fold change (FC)” value with Escherichia coli [6], in the data set on Escherichia coli [7] and in the data set with Escherichia coli [14] were 16, 2 and 2, respectively. In addition, the inhibition with Bacteria [17] and in the data set with Bacteria [18] was over 90% throughout.

Turning to `CCOC(=O)ONC(=O)CCCc1ccccc1`, the inhibition in the data set on Bacteria [1] is under 42%; with Bacteria [9], under 42%; in the data set with Bacteria [12], over 90%; in data set [13] it was over 90%; in the data set on Bacteria [17], over 90%; with Bacteria [18], over 90%. The MIC came to 0.5 µg/mL in the data set on Escherichia coli [2], 64 µg/mL in the data set on Escherichia coli [3], 4 µg/mL in the data set on Escherichia coli [10] and 16 µg/mL in the data set with Escherichia coli [16]. For the same compound, the “fold change (FC)” value in the data set with Escherichia coli [4], in the data set on Escherichia coli [6], in the data set on Escherichia coli [7] and in the data set with Escherichia coli [14] was 2 throughout. Also, the IC50 in data set [5] came to 990 nM; in [8] it was 2890 nM; in data set [11] it was 980 nM; in data set [15], 2880 nM.
